The record followed here is publication PMC7392018, “A general-purpose Nanohybrid fabricated by Polymeric Au(I)-peptide precursor to wake the function of Peptide Therapeutics” (Theranostics, 2020).

A short description of series [1]: In vivo toxicity study. As to conditions: 2.5 mg/kg every other day for 12 days, HCT116 xenograft mice; PMI-Au SNH intraperitoneally, intravenously or intragastrically. On the procedure:
To evaluate the toxicity of PMI-Au SNH including the nephrotoxicity in vivo, we carried out a comprehensive toxicity study using the subcutaneous xenograft model of HCT116 tumors from efficacy studies. PMI-Au SNH was intraperitoneally, intravenously or intragastrically injected, every other day for a duration of 12 days, at a dose of 2.5 mg/kg, with saline, ^ctrlPMI-Au SNH and DOX as controls. […] The safety of both PMI-Au SNH and ^ctrlPMI-Au SNH and toxicity of DOX were further confirmed by changes, or lack thereof, in the function of the liver and kidney (Figure 9A-G), in the weight and H&E staining of spleen (Figure 9H-I) and in the number of white blood cells and thrombocytes (Figure S11). Moreover, heart function (Figure S12), the level of red blood cells (Figure S13) and the histological H&E staining of lung (Figure S14) supported the above findings and the conclusion that PMI-Au SNH is sufficiently safe with a significant therapeutic potential. […]
intense staining. […]
To assess potential toxicities of repeatedly infusing PMI-Au SNH, we monitored body weight of all mice over the course of treatment and measured hematological indexes as well as organ function indexes after 13- day treatment. […]

Series [2] has as its system chymotrypsin. The series can be described thus: Proteolysis resistance to chymotrypsin by HPLC. Format: in vitro ADME. To be noted: chymotrypsin with 10% serum in PBS, PBS containing 10 mM oxidized glutathione, 0.5 mg/ml chymotrypsin, read-out: t1/2 of proteolysis (converted). On the procedure: Figure 3 The colloidal peptide-auric SNH is stable and proteolytically resistant. (A) The physicochemical properties of the three peptide and the schematic diagram of three peptide-Auric SNH. (B-D) The dimensional change of Pep-AuNPs and Pep-Au SNH with time in PBS (pH7.4) or PBS including 20% FBS and 50 µM GSH to simulate extracellular physiological environment. (E-G) Proteolysis resistance of Pep-SH, Pep-AuNPs and Pep-Au SNH under PBS containing 10 mM oxidized glutathione, 10% serum, and 0.5 mg/ml chymotrypsin.
Linear peptides are conformationally disordered in aqueous solutions under their own steam and, consequently, tendentious to proteolysis. Conjugation of peptides with nanoparticles would improve steric hindrance against peptidase, resulting in the resistance to proteolysis, [44]. We comparatively quantified the susceptibility of Pep-AuNPs and Pep-Au SNH to chymotrypsin using HPLC (Figure 3E-G).
Fi g u re S 9. (A) The dimensional change of PMI- Au SNH with time in PBS or PBS including 20%
FBS and 50μM GSH at pH 7.4 or 4.0 to simulate extracellular physiological environment. ( B)
Proteolysis resistance of Pep-Au SNH under PBS at pH 7.4 or 4.0 containing 10 mM oxidized
glutathione, 10% serum, and 0.5 mg/ml chymotrypsin. (C) ICP- MS quantification of gold content
(from PMI- Au SNH) in stomach, colon and blood collected from health c57/b6 mice. The data […]

Turning to `COc1cccc2c1C(=O)c1c(O)c3c(c(O)c1C2=O)C[C@@](O)(C(=O)CO)C[C@@H]3O[C@H]1C[C@H](N)[C@H](O)[C@H](C)O1` [DOX, doxorubicin], the body weight change result in series [1] is listed as “significant loss of body weight”.

Turning to `CC(=O)N[C@H](C(=O)N[C@@H](CO)C(=O)N[C@@H](Cc1ccccc1)C(=O)N[C@@H](C)C(=O)N[C@@H](CCC(=O)O)C(=O)N[C@@H](Cc1ccc(O)cc1)C(=O)N[C@@H](Cc1c[nH]c2ccccc12)C(=O)N[C@@H](C)C(=O)N[C@@H](CC(C)C)C(=O)N[C@@H](CC(C)C)C(=O)N[C@@H](CO)C(=O)N1CCC[C@H]1C(=O)N[C@@H](CS)C(=O)O)[C@@H](C)O` [PMI-SH], the half-life in series [2] was 9 ± 0.6 min.
